Calls of active or inactive are those of the source. No cut-off for these calls is given here.

For data set [1], the system named is Mus musculus. The experiment in a line: Analgetic activity in sc dosed mouse by hot-plate method. In kind it is functional. For orientation: In hot-plate and tail-flick tests a longer latency is read as antinociception.
Data set [2] deals with Mus musculus. The data set is described as follows: Analgetic activity in mouse at 100 mg/kg, sc by hot-plate method. In kind it is functional, organism-based. Details: dose 100 mg/kg.
Data set [3] has as its system Mus musculus. The experiment in a line: Analgetic activity in mouse at 50 mg/kg, sc by hot-plate method. Details: dose 50 mg/kg. In kind it is functional, organism-based.
Data set [4] relates to Mus musculus. The data set is described as follows: Toxicity in mouse at 100 mg/kg, sc. Details: dose 100 mg/kg, route subcutaneous. The following applies: in vivo. It is filed as organism-based.

For orientation: ED50 means the midpoint of the dose-response relation. Higher therefore signals weaker potency. The molecule `CN1CC[C@@]2(C)C[C@H]1Cc1ccccc12` registered an ED50 in data set [1] of 11 mg/kg.
As to `CN1CC[C@]23c4c5ccc(O)c4O[C@H]2[C@@H](O)C=C[C@H]3[C@H]1C5` [MORPHINE], in data set [1], the 50% effect level (ED50) was put at a dose of 1.2 mg/kg. Compared with the last molecule, the ED50 is about 9.2-fold lower.
In data set [1], `CN1CC[C@H]2C[C@H]1Cc1ccc(O)cc12` displayed a median effective dose (ED50) of 4.5 mg/kg.
On to `CN1CC[C@@H]2CC=C[C@@H]1C2`, for which the result in data set [2] was inactive.
Still for that read-out and setting: the same measure for `CN1CCC2CC1C[C@@H](O)C2` (stereo partly drawn): “inactive”.
In data set [1], `CN1CCC2CC(=O)CC1C2` (stereo not drawn) came in with an ED50 of 40 mg/kg.
As for `CN1CC[C@@H]2C=CC[C@@H]1C2`, the outcome in data set [3] was inactive. In data set [4], the Activity entry is given as “Toxic”.

The record behind these values is ChEMBL document CHEMBL3271945, “Azabicyclo chemistry. 6. An investigation of one of the chemical parameters for analgetic activity. Synthesis of 2-methyl-2-azabicyclo[3.3.1]non-6-ene and -non-7-ene” (J Med Chem, 1977).
